Where a SMILES comes first, the peptide text is derived from it. Bridges are numbered along the chain shown (N, C = ends). The star is where a group is joined. Carbamoyl = NC(=O)*
How the values were obtained:
Format in all cases: cell-based
[1] = target: Melanocyte-stimulating hormone receptor (Homo sapiens, UniProt Q01726); test: Displacement of [125I]-NDP-alpha-MSH from human MC1R expressed in CHO cells by Topcount beta counter analysis
[2] = target: Melanocortin receptor 3 (Homo sapiens, UniProt P41968); test: Displacement of [125I]-NDP-alpha-MSH from human MC3R expressed in HEK293 cells by Topcount beta counter analysis
Melanocortin receptor 3, sequence (P41968 whole entry): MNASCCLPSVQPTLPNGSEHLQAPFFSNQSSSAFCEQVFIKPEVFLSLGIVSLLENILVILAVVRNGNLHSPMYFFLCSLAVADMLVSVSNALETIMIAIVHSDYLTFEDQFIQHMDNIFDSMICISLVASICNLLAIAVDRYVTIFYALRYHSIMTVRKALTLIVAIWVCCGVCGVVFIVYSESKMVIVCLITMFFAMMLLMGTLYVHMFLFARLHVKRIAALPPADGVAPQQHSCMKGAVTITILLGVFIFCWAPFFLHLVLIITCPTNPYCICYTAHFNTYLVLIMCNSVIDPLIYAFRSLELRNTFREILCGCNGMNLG

[3] = target: Melanocortin receptor 4 (Homo sapiens, UniProt P32245); test: Displacement of [125I]-NDP-alpha-MSH from human MC4R expressed in CHO cells by Topcount beta counter analysis
Melanocortin receptor 4, sequence (P32245 whole entry): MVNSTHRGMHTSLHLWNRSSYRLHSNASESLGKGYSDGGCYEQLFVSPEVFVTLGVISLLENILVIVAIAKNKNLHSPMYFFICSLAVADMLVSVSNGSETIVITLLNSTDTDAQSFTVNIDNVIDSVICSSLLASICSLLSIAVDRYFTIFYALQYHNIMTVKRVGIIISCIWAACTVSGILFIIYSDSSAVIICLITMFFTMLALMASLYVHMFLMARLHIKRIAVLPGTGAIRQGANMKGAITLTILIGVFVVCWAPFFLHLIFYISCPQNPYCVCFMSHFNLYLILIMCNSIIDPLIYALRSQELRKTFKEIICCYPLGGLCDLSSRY

[4] = target: Melanocortin receptor 5 (Homo sapiens, UniProt P33032); test: Displacement of [125I]-NDP-alpha-MSH from human MC5R expressed in CHO cells by Topcount beta counter analysis
Melanocortin receptor 5, sequence (P33032 whole entry): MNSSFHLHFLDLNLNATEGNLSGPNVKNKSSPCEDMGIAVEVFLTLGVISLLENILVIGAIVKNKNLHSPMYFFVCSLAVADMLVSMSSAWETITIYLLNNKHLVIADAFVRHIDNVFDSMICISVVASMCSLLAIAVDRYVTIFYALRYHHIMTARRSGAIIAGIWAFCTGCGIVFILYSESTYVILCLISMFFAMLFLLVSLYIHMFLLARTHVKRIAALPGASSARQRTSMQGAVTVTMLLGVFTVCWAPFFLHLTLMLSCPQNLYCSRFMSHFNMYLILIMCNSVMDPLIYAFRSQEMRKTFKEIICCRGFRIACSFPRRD

Melanocyte-stimulating hormone receptor, sequence (Q01726 whole entry): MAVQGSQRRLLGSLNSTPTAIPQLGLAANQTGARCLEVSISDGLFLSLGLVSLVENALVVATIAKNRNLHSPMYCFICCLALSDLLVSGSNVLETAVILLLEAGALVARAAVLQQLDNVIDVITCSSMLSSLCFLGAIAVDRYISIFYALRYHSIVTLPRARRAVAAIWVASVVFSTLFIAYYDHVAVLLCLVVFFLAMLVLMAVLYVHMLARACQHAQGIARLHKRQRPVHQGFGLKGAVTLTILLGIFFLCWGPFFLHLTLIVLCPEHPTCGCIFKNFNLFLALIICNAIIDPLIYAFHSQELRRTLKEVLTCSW

Compound | Ki ([3]; read-out: pKi (converted)) [nM] | Ki ([3]; read-out: Ki) [nM] | further results
CC(C)C[C@H](NC(=O)[C@H](CCCCN)NC(=O)[C@H](Cc1ccccc1)NC(=O)[C@H](CCC(N)=O)NC(=O)[C@@H]1CSSC[C@H](NC(=O)[C@@H](Cc2ccc(O)cc2)NC(=O)[C@H](Cc2c[nH]cn2)NC(=O)[C@H](Cc2ccccc2)NC(=O)[C@@H](N)CC(C)C)C(=O)N[C@@H](CCC(N)=O)C(=O)N[C@@H](CCCCN)C(=O)N[C@@H](CCC(N)=O)C(=O)N[C@@H](CCCCN)C(=O)N2CCC[C@H]2C(=O)N2CCC[C@H]2C(=O)NCC(=O)N[C@@H](Cc2ccccc2)C(=O)N[C@@H](CCCCN)C(=O)NCC(=O)N[C@@H](CCCCN)C(=O)N[C@@H](Cc2ccccc2)C(=O)N1)C(=O)N[C@@H](CCCNC(=N)N)C(=O)N1CCC[C@H]1C(=O)N1CCC[C@H]1C(=O)O | 6.92 | – | Ki ([1]; read-out: pKi (converted)): 85.1 nM; Ki ([2]; read-out: pKi (converted)): 30.9 nM; Ki ([4]; read-out: pKi (converted)): 25.7 nM
CC(C)C[C@H](NC(=O)[C@H](CCC(=O)O)NC(=O)[C@H](Cc1ccccc1)NC(=O)[C@H](CCC(N)=O)NC(=O)[C@H](CCC(N)=O)N1C(=O)[C@@H](NC(=O)[C@H](CCCCN)NC(=O)CNC(=O)[C@H](CCCCN)NC(=O)[C@H](Cc2ccccc2)NC(=O)CNC(=O)[C@@H]2CCCN2C(=O)[C@@H]2CCCN2C(=O)[C@H](CCCCN)NC(=O)[C@H](CCC(N)=O)NC(=O)[C@H](CCCCN)NC(=O)[C@H](CCC(N)=O)NC(=O)[C@H](CCC(N)=O)NC(=O)[C@H](Cc2ccc(O)cc2)NC(=O)[C@H](Cc2c[nH]cn2)NC(=O)[C@H](Cc2ccccc2)NC(=O)[C@@H](N)CC(C)C)Cc2ccccc21)C(=O)N[C@@H](CCCNC(=N)N)C(=O)N1CCC[C@H]1C(=O)N1CCC[C@H]1C(=O)O | 89.1 | 91 | –
CC(C)C[C@H](NC(=O)[C@H](CCCCN)NC(=O)[C@H](Cc1ccccc1)NC(=O)[C@H](CCC(N)=O)NC(=O)[C@@H]1CSSC[C@H](NC(=O)[C@H](CCC(N)=O)NC(=O)[C@H](C)NC(=O)[C@H](CCC(N)=O)NC(=O)[C@H](C)NC(=O)[C@H](Cc2ccc(O)cc2)NC(=O)[C@H](Cc2c[nH]cn2)NC(=O)[C@H](Cc2ccccc2)NC(=O)[C@@H](N)CC(C)C)C(=O)N2CCC[C@H]2C(=O)N2CCC[C@H]2C(=O)NCC(=O)N[C@@H](Cc2ccccc2)C(=O)N[C@@H](CCCCN)C(=O)NCC(=O)N[C@@H](CCCCN)C(=O)N[C@@H](Cc2ccccc2)C(=O)N1)C(=O)N[C@@H](CCCNC(=N)N)C(=O)N1CCC[C@H]1C(=O)N1CCC[C@H]1C(=O)O (H-LFHYAQAQCPPGFKGKFCQFKLRPP-OH; disulfide 9-18) | 245 | – | –
CC(C)C[C@H](NC(=O)[C@H](CCCCN)NC(=O)[C@H](Cc1ccccc1)NC(=O)[C@H](CCC(N)=O)NC(=O)[C@@H]1CSSC[C@H](NC(=O)[C@H](CCC(N)=O)NC(=O)[C@H](C)NC(=O)[C@H](Cc2ccc(O)cc2)NC(=O)[C@H](Cc2c[nH]cn2)NC(=O)[C@H](Cc2ccccc2)NC(=O)[C@@H](N)CC(C)C)C(=O)N[C@@H](CCC(N)=O)C(=O)N[C@@H](C)C(=O)N2CCC[C@H]2C(=O)N2CCC[C@H]2C(=O)NCC(=O)N[C@@H](Cc2ccccc2)C(=O)N[C@@H](CCCCN)C(=O)NCC(=O)N[C@@H](CCCCN)C(=O)N[C@@H](Cc2ccccc2)C(=O)N1)C(=O)N[C@@H](CCCNC(=N)N)C(=O)N1CCC[C@H]1C(=O)N1CCC[C@H]1C(=O)O (H-LFHYAQCQAPPGFKGKFCQFKLRPP-OH; disulfide 7-18) | 245 | – | –
CC(C)C[C@H](NC(=O)[C@H](CCCCN)NC(=O)[C@H](Cc1ccccc1)NC(=O)[C@H](CCC(N)=O)NC(=O)[C@H](CSC(N)=O)NC(=O)[C@H](Cc1ccccc1)NC(=O)[C@H](CCCCN)NC(=O)CNC(=O)[C@H](CCCCN)NC(=O)[C@H](Cc1ccccc1)NC(=O)CNC(=O)[C@@H]1CCCN1C(=O)[C@@H]1CCCN1C(=O)[C@H](CCCCN)NC(=O)[C@H](CCC(N)=O)NC(=O)[C@H](CCCCN)NC(=O)[C@H](CCC(N)=O)NC(=O)[C@H](CSC(N)=O)NC(=O)[C@H](Cc1ccc(O)cc1)NC(=O)[C@H](Cc1cnc[nH]1)NC(=O)[C@H](Cc1ccccc1)NC(=O)[C@@H](N)CC(C)C)C(=O)N[C@@H](CCCNC(=N)N)C(=O)N1CCC[C@H]1C(=O)N1CCC[C@H]1C(=O)O (H-LFHYC(Carbamoyl)QKQKPPGFKGKFC(Carbamoyl)QFKLRPP-OH) | 12.6 | – | Ki ([1]; read-out: pKi (converted)): 110 nM; Ki ([2]; read-out: pKi (converted)): 37.2 nM; Ki ([4]; read-out: pKi (converted)): 135 nM
CC(C)C[C@H](NC(=O)[C@H](CCCCN)NC(=O)[C@H](Cc1ccccc1)NC(=O)[C@H](CCC(N)=O)NC(=O)[C@@H]1CSSC[C@H](NC(=O)[C@H](Cc2ccc(O)cc2)NC(=O)[C@H](Cc2c[nH]cn2)NC(=O)[C@H](Cc2ccccc2)NC(=O)[C@@H](N)CC(C)C)C(=O)N[C@@H](CCC(N)=O)C(=O)N[C@@H](C)C(=O)N[C@@H](CCC(N)=O)C(=O)N[C@@H](C)C(=O)N2CCC[C@H]2C(=O)N2CCC[C@H]2C(=O)NCC(=O)N[C@@H](Cc2ccccc2)C(=O)N[C@@H](CCCCN)C(=O)NCC(=O)N[C@@H](CCCCN)C(=O)N[C@@H](Cc2ccccc2)C(=O)N1)C(=O)N[C@@H](CCCNC(=N)N)C(=O)N1CCC[C@H]1C(=O)N1CCC[C@H]1C(=O)O (H-LFHYCQAQAPPGFKGKFCQFKLRPP-OH; disulfide 5-18) | 117 | – | Ki ([1]; read-out: pKi (converted)): 912 nM; Ki ([2]; read-out: pKi (converted)): 170 nM; Ki ([4]; read-out: pKi (converted)): 195 nM
CC(C)C[C@H](NC(=O)[C@H](CCCCN)NC(=O)[C@H](Cc1ccccc1)NC(=O)[C@H](CCC(N)=O)NC(=O)[C@@H]1CSSC[C@H](NC(=O)[C@H](CCC(N)=O)NC(=O)[C@@H]2CSSC[C@H](NC(=O)[C@H](Cc3ccc(O)cc3)NC(=O)[C@H](Cc3c[nH]cn3)NC(=O)[C@H](Cc3ccccc3)NC(=O)[C@@H](N)CC(C)C)C(=O)N[C@@H](CCC(N)=O)C(=O)N2)C(=O)N2CCC[C@H]2C(=O)N2CCC[C@H]2C(=O)NCC(=O)N[C@@H](Cc2ccccc2)C(=O)N[C@@H](CCCCN)C(=O)NCC(=O)N[C@@H](CCCCN)C(=O)N[C@@H](Cc2ccccc2)C(=O)N1)C(=O)N[C@@H](CCCNC(=N)N)C(=O)N1CCC[C@H]1C(=O)N1CCC[C@H]1C(=O)O (H-LFHYCQCQCPPGFKGKFCQFKLRPP-OH; disulfide 5-7, 9-18) | 41.7 | 45 | Ki ([1]; read-out: Ki): 530 nM; Ki ([1]; read-out: pKi (converted)): 513 nM; Ki ([2]; read-out: Ki): 83 nM; Ki ([2]; read-out: pKi (converted)): 69.2 nM; Ki ([4]; read-out: Ki): 30 nM; Ki ([4]; read-out: pKi (converted)): 28.8 nM
CC(C)C[C@H](NC(=O)[C@H](CCCCN)NC(=O)[C@H](Cc1ccccc1)NC(=O)[C@H](CCC(N)=O)NC(=O)[C@@H]1CSSC[C@@H]2NC(=O)[C@H](CCC(N)=O)NC(=O)[C@@H](NC(=O)[C@H](Cc3ccc(O)cc3)NC(=O)[C@H](Cc3c[nH]cn3)NC(=O)[C@H](Cc3ccccc3)NC(=O)[C@@H](N)CC(C)C)CSSC[C@H](NC(=O)[C@H](CCC(N)=O)NC2=O)C(=O)N2CCC[C@H]2C(=O)N2CCC[C@H]2C(=O)NCC(=O)N[C@@H](Cc2ccccc2)C(=O)N[C@@H](CCCCN)C(=O)NCC(=O)N[C@@H](CCCCN)C(=O)N[C@@H](Cc2ccccc2)C(=O)N1)C(=O)N[C@@H](CCCNC(=N)N)C(=O)N1CCC[C@H]1C(=O)N1CCC[C@H]1C(=O)O (H-LFHYCQCQCPPGFKGKFCQFKLRPP-OH; disulfide 5-9, 7-18) | 44.7 | 49 | Ki ([1]; read-out: Ki): 549 nM; Ki ([1]; read-out: pKi (converted)): 617 nM; Ki ([2]; read-out: Ki): 90 nM; Ki ([4]; read-out: Ki): 53 nM; Ki ([4]; read-out: pKi (converted)): 33.9 nM
CC(C)C[C@H](NC(=O)[C@H](CCCCN)NC(=O)[C@H](Cc1ccccc1)NC(=O)[C@H](CCC(N)=O)NC(=O)[C@@H]1CSSC[C@H](NC(=O)[C@H](Cc2ccc(O)cc2)NC(=O)[C@H](Cc2c[nH]cn2)NC(=O)[C@H](Cc2ccccc2)NC(=O)[C@@H](N)CC(C)C)C(=O)N[C@@H](CCC(N)=O)C(=O)N[C@H]2CSSC[C@H](NC(=O)[C@H](CCC(N)=O)NC2=O)C(=O)N2CCC[C@H]2C(=O)N2CCC[C@H]2C(=O)NCC(=O)N[C@@H](Cc2ccccc2)C(=O)N[C@@H](CCCCN)C(=O)NCC(=O)N[C@@H](CCCCN)C(=O)N[C@@H](Cc2ccccc2)C(=O)N1)C(=O)N[C@@H](CCCNC(=N)N)C(=O)N1CCC[C@H]1C(=O)N1CCC[C@H]1C(=O)O (H-LFHYCQCQCPPGFKGKFCQFKLRPP-OH; disulfide 5-18, 7-9) | 43.7 | 48 | Ki ([1]; read-out: Ki): 554 nM; Ki ([1]; read-out: pKi (converted)): 490 nM; Ki ([2]; read-out: Ki): 110 nM; Ki ([2]; read-out: pKi (converted)): 97.7 nM; Ki ([4]; read-out: Ki): 41 nM; Ki ([4]; read-out: pKi (converted)): 28.8 nM
Ac-LFHYQQKQKPPGFKGKFQQFKLRPP-OH | 135 | 138 | –
H-AFHYQQKQKPPGFKGKFQQFKLRPP-OH | 123 | 125 | –
H-FHYQQKQKPPGFKGKFQQFKLRPP-OH | 288 | 334 | –
H-HYQQKQKPPGFKGKFQQFKLRPP-OH | 2040 | 2200 | –
H-LAHYQQKQKPPGFKGKFQQFKLRPP-OH | – | 236 | –
H-LFHAQQKQKPPGFKGKFQQFKLRPP-OH | – | 111 | –
H-LFHYQQKQKPPGFAGKFQQFKLRPP-OH | – | 54 | –
H-LFHYQQKQKPPGFEGKFQQFKLRPP-OH | 257 | 262 | –
H-LFHYQQKQKPPGFKGAFQQFKLRPP-OH | 72.4 | 75 | –
H-LFHYQQKQKPPGFKGEFQQFKLRPP-OH | – | 203 | –
H-LFHYQQKQKPPGFKGKFQQF-OH | 53.7 | 55 | –
H-LFHYQQKQKPPGFKGKFQQFKL-OH | 27.5 | 29 | –
H-LFHYQQKQKPPGFKGKFQQFKLR-OH | 12.3 | 14 | –
H-LFHYQQKQKPPGFKGKFQQFKLRPP-NH2 | 8.13 | 9 | –
H-YQQKQKPPGFKGKFQQFKLRPP-OH | 1320 | 1440 | –

Reference: ChEMBL document CHEMBL5113520, “From a Cone Snail Toxin to a Competitive MC4R Antagonist” (J Med Chem, 2022)
